Source: ChEMBL document CHEMBL1201862, “PubChem BioAssay data set” (2004)
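In this assay, cells in 96-well plates receive the compound at five concentrations for 48 hours. Endpoints are linearly interpolated between the surrounding concentrations. GI50 = concentration required for 50% inhibition of growth.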 Calls of active or inactive are those of the source. No stated cut-off is given here; in the data, active = GI50 up to about 1.1 µM and inactive = higher. *1 amine or outer side, *2 acyl side, *3 side chain or, on linkers, in order; H or OH if unused. Where a SMILES comes first, the peptide text is derived from it. Bridges are numbered along the chain shown (N, C = ends). Roman numbers before positions name the chains, in order. [ ]: non-standard residue; d: D form. Actinocin(1to9) = Cc1c2oc3c(C)ccc(C(=O)[*:2])c3nc-2c(C(=O)[*:1])c(N)c1=O; NMeV = CN[CH](C(=O)O)C(C)C; Sar = CNCC(=O)O

Columns and labels:
Test in all cases: DTP human tumour cell line panel, 48 h
SF-539 = tested on: SF-539
HL-60 = tested on: HL-60
LOX IMVI = tested on: LOX IMVI
DU-145 = tested on: DU-145
A549 = tested on: A549
SNB-75 = tested on: SNB-75
UO-31 = tested on: UO-31
SK-MEL-2 = tested on: SK-MEL-2
TK-10 = tested on: TK-10
786-0 = tested on: 786-0
A498 = tested on: A498
MDA-MB-435 = tested on: MDA-MB-435
UACC-62 = tested on: UACC-62
Hs-578T = tested on: Hs-578T
MOLT-4 = tested on: MOLT-4
HT-29 = tested on: HT-29
NCI-H23 = tested on: NCI-H23
OVCAR-3 = tested on: OVCAR-3
PC-3 = tested on: PC-3

SMILES	GI50 (SF-539)	GI50 (HL-60)	GI50 (LOX IMVI)	GI50 (DU-145)	GI50 (A549)	GI50 (SNB-75)	GI50 (UO-31)	GI50 (SK-MEL-2)	GI50 (TK-10)	GI50 (786-0)	GI50 (A498)	GI50 (MDA-MB-435)	GI50 (UACC-62)	GI50 (Hs-578T)	GI50 (MOLT-4)	GI50 (HT-29)	GI50 (NCI-H23)	GI50 (OVCAR-3)	GI50 (PC-3)
O=C(c1cc(Cl)cc(Cl)c1)N(C(=O)N1CCN(c2ccccc2)CC1)c1ccccc1	41 µM (inactive)	17.2 µM (inactive)	36.5 µM (inactive)	80.9 µM (inactive)	23.2 µM (inactive)	> 100 µM (inactive)	18.7 µM (inactive)	24.8 µM (inactive)	54.6 µM (inactive)	43.1 µM (inactive)	21.2 µM (inactive)	11.1 µM (inactive)	24.9 µM (inactive)	56.1 µM (inactive)	20.1 µM (inactive)	25.6 µM (inactive)	41.1 µM (inactive)	66.1 µM (inactive)	25.1 µM (inactive)
CCC(C)C1NC(=O)C(NC(=O)c2c3nc4c(C(=O)NC5C(=O)NC(C(C)C)C(=O)N6CCCC6C(=O)N(C)CC(=O)N(C)C(C(C)C)C(=O)OC5C)ccc(C)c4oc-3c(C)c(=O)c2N)C(C)OC(=O)C(C(C)C)N(C)C(=O)CN(C)C(=O)C2CCCN2C1=O (stereo not given) (I: TIP[Sar][NMeV] / II: TVP[Sar][NMeV]; ester I:1-I:C, II:1-II:C; linker I:N-II:N via Actinocin(1to9); configuration not given here)	0.00165 µM (active)	0.000513 µM (active)	< 0.0001 µM (active)	0.00475 µM (active)	0.000431 µM (active)	0.00762 µM (active)	0.0787 µM (active)	0.00172 µM (active)	0.0137 µM (active)	0.00042 µM (active)	0.000197 µM (active)	0.000513 µM (active)	0.00589 µM (active)	0.00546 µM (active)	< 0.0001 µM (active)	< 0.0001 µM (active)	0.000697 µM (active)	0.0185 µM (active)	0.000346 µM (active)
c1ccc2c(c1)ccc1ncccc12	> 100 µM (inactive)	> 100 µM (inactive)	> 100 µM (inactive)	> 100 µM (inactive)	> 100 µM (inactive)	> 100 µM (inactive)	> 100 µM (inactive)	> 100 µM (inactive)	> 100 µM (inactive)	> 100 µM (inactive)	55.8 µM (inactive)	> 100 µM (inactive)	83.8 µM (inactive)	> 100 µM (inactive)	> 100 µM (inactive)	> 100 µM (inactive)	> 100 µM (inactive)	> 100 µM (inactive)	98.2 µM (inactive)
Brc1cccc(Nc2nc(-c3cccs3)nc3ccc(Br)cc23)c1	31.8 µM (inactive)	1.28 µM (inactive)	31.3 µM (inactive)	36.1 µM (inactive)	29.5 µM (inactive)	41.2 µM (inactive)	47 µM (inactive)	32.1 µM (inactive)	24.7 µM (inactive)	28.2 µM (inactive)	31.7 µM (inactive)	16.6 µM (inactive)	17.8 µM (inactive)	38.8 µM (inactive)	26.6 µM (inactive)	17.1 µM (inactive)	36.9 µM (inactive)	16.1 µM (inactive)	31.9 µM (inactive)
C/C(=N/NC(=S)N1CCN(C(=S)N/N=C(/C)c2ccccn2)CC1)c1ccccn1	6.4 µM (inactive)	0.352 µM (active)	5.94 µM (inactive)	5.86 µM (inactive)	9.12 µM (inactive)	15.1 µM (inactive)	2.69 µM (inactive)	> 100 µM (inactive)	4.84 µM (inactive)	6.87 µM (inactive)	8.81 µM (inactive)	28 µM (inactive)	6.71 µM (inactive)	> 38 µM (inactive)	4.79 µM (inactive)	7.33 µM (inactive)	10.1 µM (inactive)	3.01 µM (inactive)	14.3 µM (inactive)
O=C(O)c1ccccc1CC(Cc1ccc2c(c1)CCC2)C(=O)O (stereo not given)	> 100 µM (inactive)	> 100 µM (inactive)	> 100 µM (inactive)	> 100 µM (inactive)	> 100 µM (inactive)	> 100 µM (inactive)	> 100 µM (inactive)	> 100 µM (inactive)	> 100 µM (inactive)	> 100 µM (inactive)	> 100 µM (inactive)	> 100 µM (inactive)	–	> 100 µM (inactive)	> 100 µM (inactive)	> 100 µM (inactive)	> 100 µM (inactive)	> 100 µM (inactive)	> 100 µM (inactive)
CCOC(=O)c1cc2c3c(cc(OC)c2[nH]1)N(C(=O)OCC)CC3	> 100 µM (inactive)	> 100 µM (inactive)	> 100 µM (inactive)	> 100 µM (inactive)	> 100 µM (inactive)	> 100 µM (inactive)	> 100 µM (inactive)	> 100 µM (inactive)	–	> 100 µM (inactive)	> 100 µM (inactive)	> 100 µM (inactive)	> 100 µM (inactive)	> 100 µM (inactive)	> 100 µM (inactive)	> 100 µM (inactive)	> 100 µM (inactive)	> 100 µM (inactive)	> 100 µM (inactive)
Nc1cc(S(=O)(=O)O)cc2ccc(S(=O)(=O)O)cc12	> 100 µM (inactive)	> 100 µM (inactive)	> 100 µM (inactive)	> 100 µM (inactive)	> 100 µM (inactive)	> 100 µM (inactive)	> 100 µM (inactive)	> 100 µM (inactive)	> 100 µM (inactive)	> 100 µM (inactive)	> 100 µM (inactive)	> 100 µM (inactive)	> 100 µM (inactive)	> 100 µM (inactive)	–	> 100 µM (inactive)	> 100 µM (inactive)	> 100 µM (inactive)	> 100 µM (inactive)
COC(=O)c1c(O)ccc2c1c1c(n2C)C(=O)c2ccccc2C1=O	17.6 µM (inactive)	> 100 µM (inactive)	16.7 µM (inactive)	11.9 µM (inactive)	14.5 µM (inactive)	2.48 µM (inactive)	6.75 µM (inactive)	25.4 µM (inactive)	26.7 µM (inactive)	15.3 µM (inactive)	> 100 µM (inactive)	33 µM (inactive)	–	6.93 µM (inactive)	5.78 µM (inactive)	78.2 µM (inactive)	19.7 µM (inactive)	35.3 µM (inactive)	23.3 µM (inactive)
COc1cc(S(=O)(=O)Nc2ccc(-c3csc(N4C(=O)CSC4c4ccccc4)n3)cc2)ccc1Cl (stereo not given)	80.7 µM (inactive)	20.8 µM (inactive)	30.5 µM (inactive)	> 100 µM (inactive)	0.785 µM (active)	67.3 µM (inactive)	79.4 µM (inactive)	37.2 µM (inactive)	–	76.2 µM (inactive)	0.116 µM (active)	43.1 µM (inactive)	13.2 µM (inactive)	55.6 µM (inactive)	25.6 µM (inactive)	54.2 µM (inactive)	> 100 µM (inactive)	> 100 µM (inactive)	41.3 µM (inactive)
